Results as given in patent publication US8440701B2, “Trisubstituted 1,2,4 triazoles” (Janssen Pharmaceutica NV, priority 2007, dated 2013).
Where a name gives a salt, the structure may show the parent alone.

Tests used:
hα7-wt nAChR [1] = molecular target: T1, hα7-wt nAChR (Homo sapiens, UniProt P36544); experiment: Ca2+ flux imaging (FDSS), potentiation of choline response; assay type: cell-based; details: for EC50: hα7-wt nAChR-expressing GH4C1 cells, potentiation of 100 μM choline, compounds 0.01 μM to 30 μM; for Emax: GH4-C1, maximal effect, efficacy of 100 μM choline defined as 100% in the absence of a PAM, GH4C1 cells
T1 construct: expressed in transfected cells; host or cells: GH4C1 cells (recombinant, stably over-expressing)
T1 sequence (P36544 23-502): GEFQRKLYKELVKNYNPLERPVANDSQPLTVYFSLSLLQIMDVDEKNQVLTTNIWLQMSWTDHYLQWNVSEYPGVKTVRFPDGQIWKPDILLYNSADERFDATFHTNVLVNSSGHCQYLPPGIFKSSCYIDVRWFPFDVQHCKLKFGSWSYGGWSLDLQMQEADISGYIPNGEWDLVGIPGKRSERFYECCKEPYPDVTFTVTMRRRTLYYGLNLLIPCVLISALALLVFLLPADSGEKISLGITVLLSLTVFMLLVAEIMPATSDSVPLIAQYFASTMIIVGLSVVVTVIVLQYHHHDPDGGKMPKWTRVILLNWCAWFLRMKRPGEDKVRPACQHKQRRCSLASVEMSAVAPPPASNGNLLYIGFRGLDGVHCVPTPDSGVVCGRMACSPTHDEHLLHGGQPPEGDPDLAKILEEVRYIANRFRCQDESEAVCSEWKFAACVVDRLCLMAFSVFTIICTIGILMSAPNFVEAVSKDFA
Experimental: Ca^2+ Flux Imaging (FDSS)
• Hanks buffered saline solution (HBSS, Invitrogen, Belgium), supplemented with 10 mM HEPES (Invitrogen, Belgium), CaCl2 to a final concentration of 5 mM, 0.1% Bovine serum albumin (Sigma-Aldrich NV, Belgium). b) Calcium-Sensitive Dye—Fluo-4AM • Fluo-4AM (Molecular Probes, USA) was dissolved in DMSO containing 10% Pluronic acid (Molecular Probes, USA) to give a stock solution which was diluted in assay buffer supplemented with 5 mM probenicid (Sigma, Aldrich NV, Belgium) to give a final concentration of 2 μM. c) 384-Well Plates • Black 384 well plate black/clear plates, PDL pre-coated (Corning, Incorporated, USA) d) Calcium Flux Measurement • A Functional drug screening system (FDSS, Hamamatsu) was used to measure intracellular free-calcium flux signals. Method
Monolayers of hα7-wt nAChR-expressing GH4C1 cells were grown in multi-well plates, in particular black-sided, transparent bottomed 384 well plates coated with poly-D-lysine for 24 hours prior to loading with a fluorescent calcium indicator, in a particular embodiment loading with fluo-4AM for up to 120 minutes.
PAM activity was detected in real time by applying the compound to be tested to the loaded cells along with a α7 nicotinic receptor agonist during constant monitoring of the cellular calcium mobilization by fluorescence in a FDSS. Compounds giving peak fluorescent responses greater than the response due to agonist alone, were considered to be α7 nAChR PAM's. In a particular embodiment, the α7 nicotinic receptor agonist was choline, a more particular embodiment choline applied at a sub-maximal concentration of 100 μM. In a further setting of the present invention the compounds to be tested were applied prior to the α7 nicotinic receptor agonist, in a particular embodiment up to 10 minutes prior to the agonist.
A control response to choline was calculated on each plate from the difference in peak in fluorescence in wells receiving either choline or assay buffer alone. Compounds of the present invention were tested at a concentration range from 0.01 μM to 30 μM. Compounds were considered to have an interesting activity when they potentiated the choline signal at least with 200% when tested at a concentration of 30 μM (the efficacy of 100 μM choline was defined as 100% in the absence of a PAM).
EC50 values (potency), maximal effect (% efficacy), and Hill slopes were estimated by fitting the sigmoidal equation to the data using GraphPad Prism (GraphPad Software, Inc., San Diego, Calif.). An EC50 (or pEC50) was determined as a concentration relating to half the maximal effect, when a clear sigmoidal curve with top plateau was obtained.

hα7-wt nAChR [2] = molecular target: T1, hα7-wt nAChR; experiment: Whole-cell voltage-clamp recording, PAM type classification; assay type: cell-based; set-up: key: Type 1 compounds enhance the effect size of the current elicited by 1 mM choline but minimally alter the kinetics of the receptor.; Type 2 compounds enhance the effect size of the current elicited by 1 mM choline while reducing the rate and/or the extent of desensitization.; Type 3 compounds enhance the effect size of the current elicited by 1 mM choline. When tested at higher concentrations up to 10 μM they completely inhibit desensitization, in particular a 1 mM choline application of 250 milliseconds.; Type 4 compounds allow for an initial desensitization of the receptor followed by a re-opening of the receptor during agonist application; details: qualitative kinetic properties; 1 mM choline; hα7-wt nAChR-expressing GH4C1 cells
Experimental: The compounds of the present invention are classified as type 1-4, based on qualitative kinetic properties, as determined by whole-cell voltage-clamp recordings. This classification is based on the effect of an α7 PAM compound, as described hereinbefore, on the signal elicited by an agonist application. In particular, said agonist is choline at a concentration of 1 mM. In a preferred experimental setting, said α7 PAM compound and choline are simultaneously applied to the cell, as described hereinafter. Desensitization is defined as the closure of the receptor upon activation during the application of the agonist in whole-cell voltage-clamp electrophysiology measurements seen as the reduction of the […] current after initial activation by the agonist.
The definition of the PAM types 1-4 is described hereinafter: • Type 1 compounds enhance the effect size of the current elicited by 1 mM choline but minimally alter the kinetics of the receptor. In particular, the rate and the extent of desensitization, elicited by the agonist, is not affected. The compound-modulated response to 1 mM choline, therefore, is a close to linear scaling of the 1 mM choline response in absence of the α7 PAM compound. • Type 2 compounds enhance the effect size of the current elicited by 1 mM choline while reducing the rate and/or the extent of desensitization. • Type 3 compounds enhance the effect size of the current elicited by 1 mM choline. […] At low-potency concentrations of the α7 PAM compound, the agonist-induced activation, which is followed by desensitization, can still be separated from the compound-induced re-opening as an initial inward current-maximum. At higher potency concentrations of the α7 PAM compound, the re-opening occurs faster than the closure due to desensitization so that the initial current-maximum disappears.
The compounds of the present invention also have a potentiating effect on the response to choline when measured by whole-cell voltage-clamp electrophysiology in GH4C1 cells stably over-expressing the human wild-type α7 receptor, as described hereinafter.
Whole-Cell Voltage-Clamp Recording
Whole-cell voltage-clamp recording from mammalian cells has provided a powerful means of assessing the function of membrane proteins thought to be subunits of ligand-gated ion channels. Activation of such proteins by endogenous or exogenous ligands causes opening of a pore associated with the receptor through which ions flow down their electrochemical gradient. In the case of the hα7-wt nAChR-expressing GH4C1 recombinant cell line the preferential permeability to calcium of this receptor means that calcium flows into the cell upon activation by ACh, choline and other nicotinic ligands giving rise to a calcium current. Since this receptor rapidly desensitizes in the presence of an agonist it is important that an application system is used which is capable of very rapid switching of solutions (<100 ms) to prevent partial or full desensitisation of receptor responses coincident with the time of agonist application. Consequently, a second convenient technique to assess the enhancement of nicotinic efficacy is whole-cell voltage-clamp recording from hα7-wt nAChR-expressing GH4C1 cells coupled with a rapid-application system.
• The external recording solution consisted of 152 mM NaCl, 5 mM KCl, 1 mM MgCl2, 1 mM Calcium, 10 mM HEPES; pH 7.3. The internal recording solution consisted of 140 mM CsCl, 10 mM HEPES, 10 mM EGTA, 1 mM MgCl2, pH 7.3. • b) Patch-clamp recording was carried out using a Patch-clamp amplifier (Multiclamp 700A, Axon Instruments, CA, USA). The membrane potential of hα7-wt nAChR-expressing GH4C1 cells was voltage-clamped in the whole cell configuration (Hamill et al, 1981) with a borosilicate glass electrode of 1.5-3 MΩ tip resistance when filled with the internal recording solution. […]

Row | SMILES | melting point [°C] | EC50 (hα7-wt nAChR [1]) [µM] | PAM_type (hα7-wt nAChR [2]) | Emax (hα7-wt nAChR [1]) [%]
1 | CCCCC(O)Cn1nc(Nc2ccc(F)c(F)c2)nc1-c1ccnc(C)c1 (racemic) [Compound E3, 1-[3-(3,4-Difluoro-phenylamino)-5-(2-methyl-pyridin-4-yl)-[1,2,4]triazol-1-yl]-hexan-2-ol] | 137.96 | – | – | –
2 | CCC(O)Cn1nc(Nc2ccc(F)c(F)c2)nc1-c1ccnc(C)c1 (single isomer, unassigned) [Compound E6] | 142.72 | 0.955 | 2 | –
3 | CCCC(O)Cn1nc(Nc2ccc(F)c(F)c2)nc1-c1cc(C)nc(C)c1 (single isomer, unassigned) [Compound E13] | 141.14 | 0.245 | 1 | 490
4 | CCCC(O)Cn1nc(Nc2ccc(F)c(F)c2)nc1-c1cc(C)nc(C)c1 (single isomer, unassigned) [Compound E14] | 139.48 | 0.316 | 2 | –
5 | CCCC(O)Cn1nc(Nc2ccc(F)c(F)c2)nc1-c1ccnc(C)c1 (single isomer, unassigned) [Compound E15] | 133.1 | 0.676 | 1 | –
6 | CCCC(O)Cn1nc(Nc2ccc(F)c(F)c2)nc1-c1ccnc(C)c1 (single isomer, unassigned) [Compound E16] | 134.82 | 0.417 | 2 | –
7 | CCC(O)Cn1nc(Nc2cccc(Cl)c2)nc1-c1cc(C)nc(C)c1 (single isomer, unassigned) [Compound E18] | – | 1.29 | 1 | –
8 | CCC(O)Cn1nc(Nc2cc(OC)cc(C(F)(F)F)c2)nc1-c1ccnc(C)c1 (single isomer, unassigned) [Compound E20] | 120.54 | 0.214 | 4 | –
9 | CCC(O)Cn1nc(Nc2cccc(Cl)c2)nc1-c1cc(C)nc(C)c1 (single isomer, unassigned) [Compound E21] | – | 0.832 | 2 | –
10 | CCCC(O)Cn1nc(Nc2cccc(Cl)c2)nc1-c1cc(C)nc(C)c1 (single isomer, unassigned) [Compound E23] | 127.44 | 0.891 | 1 | –
11 | CCCC(O)Cn1nc(Nc2cccc(Cl)c2)nc1-c1cc(C)nc(C)c1 (single isomer, unassigned) [Compound E24] | – | 0.851 | 2 | –
12 | CCC(O)Cn1nc(Nc2ccc(F)c(F)c2)nc1-c1ccnc(C)c1 (single isomer, unassigned) [Compound E26] | 145.29 | 0.776 | 1 | 580
13 | CCC(O)Cn1nc(Nc2cc(OC)cc(C(F)(F)F)c2)nc1-c1ccnc(C)c1 (single isomer, unassigned) [Compound E28] | 117.16 | 1.78 | 2 | –
14 | CCCCC(O)Cn1nc(Nc2ccc(F)c(F)c2)nc1-c1cc(C)nc(C)c1 (single isomer, unassigned; (-)) [Compound E4, (−)-1-[3-(3,4-Difluoro-phenylamino)-5-(2,6-dimethyl-pyridin-4-yl)-[1,2,4]triazol-1-yl]-hexan-2-ol] | 134.6 | 0.209 | – | –
15 | CC[C@H](O)Cn1nc(Nc2ccc(F)c(F)c2F)nc1-c1ccnc(C)c1 [Compound E31, (S)-1-[5-(2-Methyl-pyridin-4-yl)-3-(2,3,4-trifluoro-phenylamino)-[1,2,4]-triazol-1-yl]-butan-2-ol] | – | 0.55 | 2 | –
16 | CC[C@H](O)Cn1nc(Nc2ccc(F)c(F)c2F)nc1-c1cc(C)nc(C)c1 [Compound E32, (S)-1-[5-(2,6-Dimethyl-pyridin-4-yl)-3-(2,3,4-trifluoro-phenylamino)-[1,2,4]triazol-1-yl]-butan-2-ol] | – | 0.513 | 2 | –
17 | CC[C@H](O)Cn1nc(Nc2ccc(F)c(F)c2F)nc1-c1cc(C)nc(C)c1.Cl [Compound E33, (S)-1-[5-(2,6-Dimethyl-pyridin-4-yl)-3-(2,3,4-trifluoro-phenylamino)-[1,2,4]triazol-1-yl]-butan-2-ol HCl salt] | 237.44 | 0.437 | – | –
18 | CC[C@H](O)Cn1nc(Nc2cccc(Cl)c2F)nc1-c1cc(C)nc(C)c1 [Compound E34, (S)-1-[3-(3-Chloro-2-fluoro-phenylamino)-5-(2,6-dimethyl-pyridin-4-yl)-[1,2,4]triazol-1-yl]-butan-2-ol] | – | 0.316 | 2 | –
19 | CC[C@H](O)Cn1nc(Nc2cccc(Cl)c2F)nc1-c1cc(C)nc(C)c1 [Compound E35, (S)-1-[3-(3-Chloro-2-fluoro-phenylamino)-5-(2,6-dimethyl-pyridin-4-yl)-[1,2,4]-triazol-1-yl]-butan-2-ol HCl salt] | – | 0.468 | – | –
20 | CC[C@H](O)Cn1nc(Nc2cc(F)cc(OC)c2)nc1-c1ccnc(C)c1 [Compound E36, (S)-1-[3-(3-Fluoro-5-methoxy-phenylamino)-5-(2-methyl-pyridin-4-yl)-[1,2,4]triazol-1-yl]butan-2-ol HCl salt] | – | 2.09 | 2 | –
21 | CC[C@H](O)Cn1nc(Nc2cc(F)cc(OC)c2)nc1-c1cc(C)nc(C)c1.Cl [Compound E37, (S)-1-[5-(2,6-Dimethyl-pyridin-4-yl)-3-(3-fluoro-5-methoxy-phenylamino)-[1,2,4]triazol-1-yl]-butan-2-ol HCl salt] | – | 1.58 | 2 | –
